Source: patent US9169254B2, “Spiroimidazolone derivative” (Chugai Seiyaku Kabushiki Kaisha, priority 2009, dated 2015)

What follows are molecules tested against T1, human PTH1 receptor (Homo sapiens, UniProt Q03431) (assay: In vitro cAMP signal activity in HKRK-B7 cells (LLC-PK1 cells overexpressing the human PTH1 receptor)). Details: HKRK-B7 cells; compound at 1×10^−3 M; cAMP produced as percentage of that produced by hPTH(1-34) at 100 nM.
T1 sequence (Q03431 27-593): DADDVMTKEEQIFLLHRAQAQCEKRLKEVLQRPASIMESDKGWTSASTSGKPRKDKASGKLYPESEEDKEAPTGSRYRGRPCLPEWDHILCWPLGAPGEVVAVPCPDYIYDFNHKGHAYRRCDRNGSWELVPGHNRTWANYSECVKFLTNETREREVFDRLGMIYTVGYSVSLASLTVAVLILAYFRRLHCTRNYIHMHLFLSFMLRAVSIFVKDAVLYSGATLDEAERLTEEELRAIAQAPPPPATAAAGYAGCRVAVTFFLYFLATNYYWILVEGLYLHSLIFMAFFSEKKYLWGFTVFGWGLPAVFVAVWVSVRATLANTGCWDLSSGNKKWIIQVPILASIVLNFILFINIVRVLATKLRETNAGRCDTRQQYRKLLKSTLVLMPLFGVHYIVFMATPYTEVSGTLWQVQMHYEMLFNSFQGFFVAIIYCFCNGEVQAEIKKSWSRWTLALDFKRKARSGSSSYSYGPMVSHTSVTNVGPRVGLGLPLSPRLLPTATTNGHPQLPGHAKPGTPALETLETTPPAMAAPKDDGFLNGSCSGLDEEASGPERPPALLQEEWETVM
Assay type: cell-based

Row | SMILES | cAMP production activity (%)
1 | Cc1cc(C(=O)N2CCC(O)(CF)CC2)cc(C)c1/C=C/S(=O)(=O)N1CCC2(CC1)N=C(C1CCC(C)CC1)NC2=O (stereo not drawn) [Compound 1000, 8-{(E)-2-[4-(4-fluoromethyl-4-hydroxy-piperidine-1-carbonyl)-2,6-dimethyl-phenyl]-ethenesulfonyl}-2-(4-methyl-cyclohexyl)-1,3,8-triaza-spiro[4.5]dec-1-en-4-one] | 86
2 | Cc1cc2c(CCS(=O)(=O)N3CCC4(CC3)N=C(C3CCCCC3)NC4=O)cccc2[nH]1 [Compound 745, 2-Cyclohexyl-8-[2-(2-methyl-1H-indol-4-yl)-ethanesulfonyl]-1,3,8-triaza-spiro[4.5]dec-1-en-4-one] | 67
3 | Cc1ccc(C2=NC3(CCN(S(=O)(=O)/C=C/c4c(C)cc(C(=O)N5CCC(C)(O)CC5)cc4C)CC3)C(=O)N2)cc1C [Compound 1237, 2-(3,4-dimethyl-phenyl)-8-{(E)-2-[4-(4-hydroxy-4-methyl-piperidine-1-carbonyl)-2,6-dimethyl-phenyl]-ethenesulfonyl}-1,3,8-triaza-spiro[4.5]dec-1-en-4-one] | 96
4 | Cc1cc(S(=O)(=O)Nc2cccnc2)ccc1/C=C/S(=O)(=O)N1CCC2(CC1)N=C(c1cccc(C(F)(F)F)c1)NC2=O [Compound 219, 3-methyl-4-{(E)-2-[4-oxo-2-(3-trifluoromethyl-phenyl)-1,3,8-triaza-spiro[4.5]dec-1-ene-8-sulfonyl]-vinyl}-N-pyridin-3-yl-benzenesulfonamide] | 60
5 | Cc1cc(N2C(=O)N(CCO)C(C)(C)C2=O)cc(C)c1/C=C/S(=O)(=O)N1CCC2(CC1)N=C(c1cccc(OC(F)(F)F)c1)NC2=O [Compound 714, 3-(3,5-dimethyl-4-{(E)-2-[4-oxo-2-(3-trifluoromethoxy-phenyl)-1,3,8-triaza-spiro[4.5]dec-1-ene-8-sulfonyl]-vinyl}-phenyl)-1-(2-hydroxy-ethyl)-5,5-dimethyl-imidazolidine-2,4-dione] | 36
6 | Cc1cc(C(=O)N2CCC(C)(O)CC2)cc(C)c1/C=C/S(=O)(=O)N1CCC2(CC1)N=C(c1ccc(S(F)(F)(F)(F)F)cc1)NC2=O [Compound 1189, 8-{(E)-2-[4-(4-hydroxy-4-methyl-piperidine-1-carbonyl)-2,6-dimethyl-phenyl]-ethenesulfonyl}-2-(4-pentafluorosulfanyl-phenyl)-1,3,8-triaza-spiro[4.5]dec-1-en-4-one] | 104
7 | CCC[C@H]1CC[C@H](C2=NC3(CCN(S(=O)(=O)c4cccc(Cl)c4)CC3)C(=O)N2)CC1 [Compound 21, 8-(3-chloro-benzenesulfonyl)-2-(4-propyl-cyclohexyl)-1,3,8-triaza-spiro[4.5]dec-1-en-4-one] | 42
8 | Cc1cc(CN(CCO)C(=O)OC(C)(C)C)ccc1/C=C/S(=O)(=O)N1CCC2(CC1)N=C(C1CCCCC1)NC2=O [Compound 708, {4-[(E)-2-(2-Cyclohexyl-4-oxo-1,3,8-triaza-spiro[4.5]dec-1-ene-8-sulfonyl)-vinyl]-3-methyl-benzyl}-(2-hydroxy-ethyl)-carbamic acid tert-butyl ester] | 38
9 | Cc1cc(N(C)C(N)=O)cc(C)c1/C=C/S(=O)(=O)N1CCC2(CC1)N=C(c1ccc(OCCCC(F)(F)F)cc1)NC2=O [Compound 1020, 1-[3,5-dimethyl-4-((E)-2-{4-oxo-2-[4-(4,4,4-trifluoro-butoxy)-phenyl]-1,3,8-triaza-spiro[4.5]dec-1-ene-8-sulfonyl}-vinyl)-phenyl]-1-methyl-urea] | 81
10 | CCCCCCCC#CC1=NC2(CCN(S(=O)(=O)/C=C/c3c(C)cc(N(C)C(N)=O)cc3C)CC2)C(=O)N1 [Compound 1027, 1-{3,5-dimethyl-4-[(E)-2-(2-non-1-ynyl-4-oxo-1,3,8-triaza-spiro[4.5]dec-1-ene-8-sulfonyl)-vinyl]-phenyl}-1-methyl-urea] | 82
11 | CNc1cc(C)c(/C=C/S(=O)(=O)N2CCC3(CC2)N=C(CCCCCCCCC(F)(F)F)NC3=O)c(C)c1 [Compound 690, 8-[(E)-2-(2,6-Dimethyl-4-methylamino-phenyl)-ethenesulfonyl]-2-(9,9,9-trifluoro-nonyl)-1,3,8-triaza-spiro[4.5]dec-1-en-4-one] | 86
12 | Cc1cc(C(=O)N2CCC(C)(O)CC2)cc(C)c1/C=C/S(=O)(=O)N1CCC2(CC1)N=C(c1cccc(OC(F)(F)C(F)F)c1)NC2=O [Compound 1100, 8-{(E)-2-[4-(4-Hydroxy-4-methyl-piperidine-1-carbonyl)-2,6-dimethyl-phenyl]-ethenesulfonyl}-2-[3-(1,1,2,2-tetrafluoro-ethoxy)-phenyl]-1,3,8-triaza-spiro[4.5]dec-1-en-4-one] | 76
13 | CCCCCCCCCC1=NC2(CCN(S(=O)(=O)/C=C/c3ccc(N4C(=O)CNC4=O)cc3C(F)(F)F)CC2)C(=O)N1 [Compound 537, 3-{4-[(E)-2-(2-nonyl-4-oxo-1,3,8-triaza-spiro[4.5]dec-1-ene-8-sulfonyl)-vinyl]-3-trifluoromethyl-phenyl}-imidazolidine-2,4-dione] | 3.9
14 | Cc1cc(C(=O)N2CCC(O)(CF)CC2)cc(C)c1/C=C/S(=O)(=O)N1CCC2(CC1)N=C(c1ccc(OCC(F)(F)F)c(F)c1)NC2=O [Compound 1260, 8-{(E)-2-[4-(4-fluoromethyl-4-hydroxy-piperidine-1-carbonyl)-2,6-dimethyl-phenyl]-ethenesulfonyl}-2-[3-fluoro-4-(2,2,2-trifluoro-ethoxy)-phenyl]-1,3,8-triaza-spiro[4.5]dec-1-en-4-one] | 81
15 | Cc1ccccc1C(=O)CS(=O)(=O)N1CCC2(CC1)N=C(C1CCCCC1)NC2=O [Compound 1375, 2-Cyclohexyl-8-(2-oxo-2-o-tolyl-ethanesulfonyl)-1,3,8-triaza-spiro[4.5]dec-1-en-4-one] | 23

Continued, values first:

Row | cAMP production activity (%) | SMILES
16 | 28 | Cc1cc(C(=O)N(C)C)ccc1-c1cccc(S(=O)(=O)N2CCC3(CC2)N=C(c2cccc(OC(F)(F)F)c2)NC3=O)c1 [Compound 335, 2-methyl-3′-[4-oxo-2-(3-trifluoromethoxy-phenyl)-1,3,8-triaza-spiro[4.5]dec-1-ene-8-sulfonyl]-biphenyl-4-carboxylic acid dimethylamide]
17 | 107 | Cc1cc(N(C)C(N)=O)cc(C)c1CCS(=O)(=O)N1CCC2(CC1)N=C(c1cccc(CCCCCC(F)(F)F)c1)NC2=O [Compound 1345, 1-[3,5-dimethyl-4-(2-{4-oxo-2-[3-(6,6,6-trifluoro-hexyl)-phenyl]-1,3,8-triaza-spiro[4.5]dec-1-ene-8-sulfonyl}-ethyl)-phenyl]-1-methyl-urea]
18 | 49 | Cc1cc(C(=O)N(C)C)ccc1CCS(=O)(=O)N1CCC2(CC1)N=C(CCc1ccccc1)NC2=O [Compound 101, 3,N,N-trimethyl-4-[2-(4-oxo-2-phenethyl-1,3,8-triaza-spiro[4.5]dec-1-ene-8-sulfonyl)-ethyl]-benzamide]
19 | 124 | Cc1cc(C(=O)N2CCN(C(C)C)CC2)ccc1CCS(=O)(=O)N1CCC2(CC1)N=C(c1cccc(OC(F)(F)F)c1)NC2=O [Compound 849, 8-{2-[4-(4-isopropyl-piperazine-1-carbonyl)-2-methyl-phenyl]-ethanesulfonyl}-2-(3-trifluoromethoxy-phenyl)-1,3,8-triaza-spiro[4.5]dec-1-en-4-one]
20 | 17 | Cc1cc(C(=O)N(C)C)ccc1-c1cccc(S(=O)(=O)N2CCC3(CC2)N=C(c2cccc(OC(F)(F)F)c2)NC3=O)n1 [Compound 337, 3,N,N-trimethyl-4-{6-[4-oxo-2-(3-trifluoromethoxy-phenyl)-1,3,8-triaza-spiro[4.5]dec-1-ene-8-sulfonyl]-pyridin-2-yl}-benzamide]
21 | 80 | CCCCCCCCCC1=NC2(CCN(S(=O)(=O)CCc3ccc(C(=O)N4CCCC4)cc3C)CC2)C(=O)N1 [Compound 977, 8-{2-[2-Methyl-4-(pyrrolidine-1-carbonyl)-phenyl]-ethanesulfonyl}-2-nonyl-1,3,8-triaza-spiro[4.5]dec-1-en-4-one]
22 | 45 | O=C1NC(c2ccc(Cl)cc2Cl)=NC12CCN(S(=O)(=O)CCc1cccc3ccccc13)CC2 [Compound 47, 2-(2,4-dichloro-phenyl)-8-(2-naphthalen-1-yl-ethanesulfonyl)-1,3,8-triaza-spiro[4.5]dec-1-en-4-one]
23 | 68 | COC(=O)c1cccc(C2=NC3(CCN(S(=O)(=O)CCc4ccc(C(=O)N(C)C)cc4C)CC3)C(=O)N2)c1 [Compound 174, 3-{8-[2-(4-Dimethylcarbamoyl-2-methyl-phenyl)-ethanesulfonyl]-4-oxo-1,3,8-triaza-spiro[4.5]dec-1-en-2-yl}-benzoic acid methyl ester]
24 | 69 | CC(=O)Nc1ccc(CCS(=O)(=O)N2CCC3(CC2)N=C([C@H]2CC[C@H](CC=C(F)F)CC2)NC3=O)c(C)c1 [Compound 1067, N-[4-(2-{2-[4-(3,3-difluoro-allyl)-cyclohexyl]-4-oxo-1,3,8-triaza-spiro[4.5]dec-1-ene-8-sulfonyl}-ethyl)-3-methyl-phenyl]-acetamide]
